Measured values reported in patent US10280163B2 (BeiGene, Ltd., priority 2015, dated 2019).
Read-outs that look alike come from different tables or passages of the source.

Columns and labels:
Recombinant IDO1 = molecular target: T1, Recombinant IDO1 (Homo sapiens, UniProt P14902); test: IDO1 enzymatic assay; assay type: biochemical
T1 construct: His tag (N); made in house; host or cells: E. coli
Procedure, shortened: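 N-terminally His-tagged enzyme from E. coli (50 nM) was incubated with compound, 1.3 mM D-tryptophan, 5 mM ascorbate, 6.25 μM methylene blue and 0.4 mg/mL catalase in 50 mM potassium phosphate pH 7.5, 0.1% BSA for 1.5 h at 24° C. N′-formylkynurenine formation was followed at 321 nm for 1 h; IC50 from rate slopes.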

Recombinant TDO = molecular target: T2, Recombinant TDO (Homo sapiens, UniProt P48775); test: TDO enzymatic assay; assay type: biochemical
T2 construct: His tag (C); made in house; host or cells: E. coli
Method: Recombinant TDO was overexpressed and purified from E. coli cells with a C-terminal His tag. TDO enzymatic assay was performed using the same methodology as IDO1 enzymatic assay except that 100 nM TDO and 0.5 mM L-tryptophan (Km concentration) were used in the TDO assay.

[1] = molecular target: T3, cellular IDO1 in HeLa cells (Homo sapiens, UniProt P14902); test: HeLa cell-based IDO1 Kyn (kynurenine) production assay; conditions: IFN-γ 100 ng/mL, 48 hours
T3 construct: endogenous in cells; host or cells: HeLa cells (American Type Tissue Culture Collection), induced with human recombinant IFN-γ
Procedure, shortened: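 IFN-γ-induced HeLa cells (100 ng/mL) in phenol red-free DMEM with 0.4 mM L-Trp, compounds added together with IFN-γ, 48 h at 37 °C. Supernatant Kyn read at 480 nm after TCA precipitation and 4-(dimethylamino)benzaldehyde reaction. IC50 from four-parameter logistic fit.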

[2] = Table 1, 5-substituted imidazo[1,5-a]pyridines, 50 nM IDO1, 1.3 mM D-tryptophan, read-out: Enzyme IC50 (nM) IDO1
[3] = Table 1, 5-substituted imidazo[1,5-a]pyridines, 100 nM TDO, 0.5 mM L-tryptophan, read-out: Enzyme IC50 (nM) TDO
[4] = Table 1, 5-substituted imidazo[1,5-a]pyridines
[5] = Table 2, 8-substituted imidazo[1,5-a]pyridines, 50 nM IDO1, 1.3 mM D-tryptophan, read-out: Enzyme IC50 (nM) IDO1
[6] = Table 2, 8-substituted imidazo[1,5-a]pyridines, 100 nM TDO, 0.5 mM L-tryptophan, read-out: Enzyme IC50 (nM) TDO
[7] = Table 2, 8-substituted imidazo[1,5-a]pyridines
[8] = selectivity examples, read-out: enzymatic IC50 value to IDO1
[9] = selectivity examples, read-out: enzymatic IC50 value to TDO

T1 sequence (P14902 whole entry): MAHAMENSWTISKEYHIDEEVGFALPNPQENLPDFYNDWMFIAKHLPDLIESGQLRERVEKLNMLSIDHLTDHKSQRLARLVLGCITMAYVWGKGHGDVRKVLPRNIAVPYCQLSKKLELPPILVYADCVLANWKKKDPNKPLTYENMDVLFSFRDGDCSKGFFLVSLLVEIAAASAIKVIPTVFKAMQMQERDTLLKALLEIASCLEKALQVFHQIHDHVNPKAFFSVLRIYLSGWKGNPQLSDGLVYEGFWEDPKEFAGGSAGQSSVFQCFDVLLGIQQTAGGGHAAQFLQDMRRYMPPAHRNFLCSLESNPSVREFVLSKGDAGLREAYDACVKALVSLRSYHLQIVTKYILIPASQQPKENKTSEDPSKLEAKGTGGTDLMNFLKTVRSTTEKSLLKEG
T3 sequence (P14902 whole entry): as above
T2 sequence (P48775 whole entry): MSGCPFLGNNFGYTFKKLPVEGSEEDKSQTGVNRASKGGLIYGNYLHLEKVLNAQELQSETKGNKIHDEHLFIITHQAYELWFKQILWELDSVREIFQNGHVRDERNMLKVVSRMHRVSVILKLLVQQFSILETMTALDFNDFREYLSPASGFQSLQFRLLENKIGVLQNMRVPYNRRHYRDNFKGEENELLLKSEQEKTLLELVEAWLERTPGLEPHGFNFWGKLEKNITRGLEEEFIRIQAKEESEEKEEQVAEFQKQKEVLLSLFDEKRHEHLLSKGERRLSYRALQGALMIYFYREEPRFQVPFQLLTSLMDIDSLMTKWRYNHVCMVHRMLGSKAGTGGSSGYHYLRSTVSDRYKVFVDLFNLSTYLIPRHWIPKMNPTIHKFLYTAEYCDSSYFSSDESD

IC50 (Recombinant IDO1; [2]) [nM] | IC50 (Recombinant TDO; [3]) [nM] | EC50 [1, 4] [nM] | IC50 (Recombinant IDO1; [5]) [nM] | IC50 (Recombinant TDO; [6]) [nM] | EC50 [1, 7] [nM] | IC50 (Recombinant IDO1; [8]) [nM] | IC50 (Recombinant TDO; [9]) [nM] | SMILES
3400 | 14000 | 6100 | – | – | – | – | – | OC(c1c(Cl)c(Cl)cc2cncn12)C1CCCCC1 (single isomer, unassigned) [Example A143b]
> 100000 | 23000 | > 10000 | – | – | – | – | – | OC(CC1CCCCC1)c1c(Cl)c(Cl)cc2cncn12 (single isomer, unassigned) [Example A144a]
14 | 240 | 291 | – | – | – | – | – | OC(CC1CCCCC1)c1c(Cl)c(Cl)cc2cncn12 (single isomer, unassigned) [Example A144b]
– | – | – | 15 | 150 | 995 | – | – | Cc1ccn2cncc2c1C(O)C1CCCCC1 (single isomer, unassigned) [Example B102a]
– | – | – | 3100 | 31000 | > 10000 | – | – | Cc1ccn2cncc2c1C(O)C1CCCCC1 (single isomer, unassigned) [Example B102b]
– | – | – | 47 | 1300 | 136 | – | – | OC(c1c(C2CC2)ccn2cncc12)C1CCCCC1 (single isomer, unassigned) [Example B107a]
– | – | – | 21000 | 11000 | > 10000 | – | – | O[C@@H](c1c(C2CC2)ccn2cncc12)C1CCCCC1 (single isomer, unassigned) [Example B107b]
150 | 260 | > 10000 | – | – | – | – | – | OC(c1cccc2cncn12)C1CCCCC1 (stereo not drawn) [Example A001, Cyclohexyl(imidazo[1,5-a]pyridin-5-yl)methanol]
110 | 260 | > 10000 | – | – | – | – | – | OC(c1cccc2cncn12)C1CCCCCC1 (stereo not drawn) [Example A009, Cycloheptyl(imidazo[1,5-a]pyridin-5-yl)methanol]
540 | 260 | > 10000 | – | – | – | – | – | c1cc(CC2CCCCC2)n2cncc2c1 [Example A015, 5-(cyclohexylmethyl)imidazo[1,5-a]pyridine]
8900 | 350 | > 10000 | – | – | – | – | – | FC(c1cc(Cl)cc2cncn12)C1CCC(F)(F)CC1 (stereo not drawn) [Example A020, 7-chloro-5-((4,4-difluorocyclohexyl)fluoromethyl)imidazo[1,5-a]pyridine]
1200 | 570 | > 10000 | – | – | – | – | – | OC(c1ccc(F)c2cncn12)C1CCCCC1 (stereo not drawn) [Example A022, cyclohexyl(8-fluoroimidazo[1,5-a]pyridin-5-yl)methanol]
107 | 73 | > 10000 | – | – | – | – | – | Clc1cc(CC2CCCCC2)n2cncc2c1 [Example A026, 7-chloro-5-(cyclohexylmethyl)imidazo[1,5-a]pyridine]
29 | 68 | 1360 | – | – | – | – | – | OC(c1cc(Cl)cc2cncn12)C1CCCCC1 (stereo not drawn) [Example A101, (7-chloroimidazo[1,5-a]pyridin-5-yl)(cyclohexyl)methanol]
9.6 | 29 | 326 | – | – | – | – | – | O[C@H](c1cc(Cl)cc2cncn12)C1CCCCC1 [Example A101a, (S)-(7-chloroimidazo[1,5-a]pyridin-5-yl)(cyclohexyl)methanol]
67 | 300 | 1760 | – | – | – | – | – | OC(CC1CCCCC1)c1cc(Cl)cc2cncn12 (stereo not drawn) [Example A102, 1-(7-chloroimidazo[1,5-a]pyridin-5-yl)-2-cyclohexylethan-1-ol]

IC50 (Recombinant IDO1; [2]) [nM] | IC50 (Recombinant TDO; [3]) [nM] | EC50 [1, 4] [nM] | IC50 (Recombinant IDO1; [5]) [nM] | IC50 (Recombinant TDO; [6]) [nM] | EC50 [1, 7] [nM] | IC50 (Recombinant IDO1; [8]) [nM] | IC50 (Recombinant TDO; [9]) [nM] | SMILES
22 | 22 | 1510 | – | – | – | – | – | OC(c1cc(Cl)cc2cncn12)C1CCCC1 (stereo not drawn) [Example A103, (7-chloroimidazo[1,5-a]pyridin-5-yl)(cyclopentyl)methanol]
29 | 270 | 2180 | – | – | – | – | – | CC1CCC(C(O)c2cc(Cl)cc3cncn23)CC1 (stereo not drawn) [Example A104, (7-chloroimidazo[1,5-a]pyridin-5-yl)(4-methylcyclohexyl)methanol]
127 | 1600 | 1690 | – | – | – | – | – | O=C(NC1CCCC(C(O)c2cc(Cl)cc3cncn23)C1)c1cccc(Cl)c1 (stereo not drawn) [Example A105, 3-chloro-N-(3-((7-chloroimidazo[1,5-a]pyridin-5-yl)(hydroxy)methyl)cyclohexyl)benzamide]
26 | 110 | 968 | – | – | – | – | – | OC(c1cc(I)cc2cncn12)C1CCCCC1 (stereo not drawn) [Example A107, cyclohexyl(7-iodoimidazo[1,5-a]pyridin-5-yl)methanol 2,2,2-trifluoroacetate]
36 | 150 | 4440 | – | – | – | – | – | OC(c1cc(C2CC2)cc2cncn12)C1CCCCC1 (stereo not drawn) [Example A108, cyclohexyl(7-cyclopropylimidazo[1,5-a]pyridin-5-yl)methanol 2,2,2-trifluoroacetate]
49 | 110 | 1540 | – | – | – | – | – | OC(c1cc(C(F)(F)F)cc2cncn12)C1CCCCC1 (stereo not drawn) [Example A109, cyclohexyl(7-(trifluoromethyl)imidazo[1,5-a]pyridin-5-yl)methanol]
66 | 120 | 2090 | – | – | – | – | – | OC(c1cc(C(F)(F)F)cc2cncn12)C1CCCC1 (stereo not drawn) [Example A110, Cyclopentyl(7-(trifluoromethyl)imidazo[1,5-a]pyridin-5-yl)methanol]
25 | 63 | 962 | – | – | – | – | – | OC(c1cc(Br)cc2cncn12)C1CCCCC1 (stereo not drawn) [Example A111, (7-bromoimidazo[1,5-a]pyridin-5-yl)(cyclohexyl)methanol]
24 | 48 | 1040 | – | – | – | – | – | OC(c1cc(Br)cc2cncn12)C1CCCC1 (stereo not drawn) [Example A112, (7-bromoimidazo[1,5-a]pyridin-5-yl)(cyclopentyl)methanol]
26 | 1100 | 3220 | – | – | – | – | – | OC(CCC1CCCCC1)c1cc(Cl)cc2cncn12 (stereo not drawn) [Example A113, 1-(7-chloroimidazo[1,5-a]pyridin-5-yl)-3-cyclohexylpropan-1-ol]
180 | 320 | 3160 | – | – | – | – | – | OC(c1cc(C(F)(F)F)cc2cncn12)C1CCCCCC1 (stereo not drawn) [Example A115, cycloheptyl(7-(trifluoromethyl)imidazo[1,5-a]pyridin-5-yl)methanol]
7.5 | 270 | 231 | – | – | – | – | – | OC(c1c(Cl)ccc2cncn12)C1CCCCC1 (stereo not drawn) [Example A116, (6-chloroimidazo[1,5-a]pyridin-5-yl)(cyclohexyl)methanol]
– | – | 143 | – | – | – | 28 | 9700 | OC(CC1CCCCC1)c1c(Cl)ccc2cncn12 (stereo not drawn) [Example A117, 1-(6-chloroimidazo[1,5-a]pyridin-5-yl)-2-cyclohexylethan-1-ol]
15 | 5700 | 420 | – | – | – | – | – | OC(c1c(Br)ccc2cncn12)C1CCCCC1 (stereo not drawn) [Example A118, (6-bromoimidazo[1,5-a]pyridin-5-yl)(cyclohexyl)methanol]
– | – | 511 | – | – | – | 22 | 12000 | OC(CC1CCCCC1)c1c(Br)ccc2cncn12 (stereo not drawn) [Example A119, 1-(6-bromoimidazo[1,5-a]pyridin-5-yl)-2-cyclohexylethan-1-ol]
37 | 3700 | 1410 | – | – | – | – | – | OC(c1c(Br)ccc2cncn12)C1CCCC1 (stereo not drawn) [Example A120, (6-bromoimidazo[1,5-a]pyridin-5-yl)(cyclopentyl)methanol]
